Test results as given in ChEMBL document CHEMBL3627641, “Identification of a new p53/MDM2 inhibitor motif inspired by studies of chlorofusin” (Bioorg Med Chem Lett, 2015).

Key:
[1] = test system: SJSA-1; test: Cytotoxic activity against human SJSA1 cells; type: functional, cell-based
[2] = test system: A-375; test: Cytotoxic activity against human A375 cells; type: functional, cell-based
[3] = Homo sapiens, SJSA-1, read-out: IC50

SMILES	IC50 [1, 3] [µM]	IC50 ([2]; a-375)	IC50 ([2]; Homo sapiens, A-375, read-out: IC50) [µM]	IC50 ([1]; sjsa-1)
Cc1ccc(-c2cn(CCC[C@H](NC(=O)OCC3c4ccccc4-c4ccccc43)C(=O)O)nn2)cc1	33.1	Not Active		
O=C(N[C@@H](CCCn1cc(-c2ccc(C(F)(F)F)cc2)nn1)C(=O)O)OCC1c2ccccc2-c2ccccc21	31.2		49.3	
O=C(N[C@@H](CCCn1cc(-c2ccc(Cl)cc2)nn1)C(=O)O)OCC1c2ccccc2-c2ccccc21		Not Active		Not Active
O=C(N[C@@H](CCCn1cc(-c2ccc(Br)cc2)nn1)C(=O)O)OCC1c2ccccc2-c2ccccc21		Not Active		Not Active
O=C(N[C@@H](CCCn1cc(-c2ccc(I)cc2)nn1)C(=O)O)OCC1c2ccccc2-c2ccccc21		Not Active		Not Active
COc1ccc(-c2cn(CCC[C@H](NC(=O)OCC3c4ccccc4-c4ccccc43)C(=O)O)nn2)cc1		Not Active		Not Active
CC(C)(C)OC(=O)Nc1ccc(-c2cn(CCC[C@H](NC(=O)OCC3c4ccccc4-c4ccccc43)C(=O)O)nn2)cc1		Not Active		Not Active
